Consider 3 molecules from ChEMBL document CHEMBL5715954, “Silencing c-Myc translation as a therapeutic strategy through targeting PI3Kδ and CK1ε in hematological malignancies” (Blood, 2017).

Design in all cases: scale not given: the % may be the effect or the level left
Experiment [1] deals with T1, Serine/threonine-protein kinase TAO1 (Homo sapiens) (UniProt Q7L7X3).
T1 sequence (whole entry): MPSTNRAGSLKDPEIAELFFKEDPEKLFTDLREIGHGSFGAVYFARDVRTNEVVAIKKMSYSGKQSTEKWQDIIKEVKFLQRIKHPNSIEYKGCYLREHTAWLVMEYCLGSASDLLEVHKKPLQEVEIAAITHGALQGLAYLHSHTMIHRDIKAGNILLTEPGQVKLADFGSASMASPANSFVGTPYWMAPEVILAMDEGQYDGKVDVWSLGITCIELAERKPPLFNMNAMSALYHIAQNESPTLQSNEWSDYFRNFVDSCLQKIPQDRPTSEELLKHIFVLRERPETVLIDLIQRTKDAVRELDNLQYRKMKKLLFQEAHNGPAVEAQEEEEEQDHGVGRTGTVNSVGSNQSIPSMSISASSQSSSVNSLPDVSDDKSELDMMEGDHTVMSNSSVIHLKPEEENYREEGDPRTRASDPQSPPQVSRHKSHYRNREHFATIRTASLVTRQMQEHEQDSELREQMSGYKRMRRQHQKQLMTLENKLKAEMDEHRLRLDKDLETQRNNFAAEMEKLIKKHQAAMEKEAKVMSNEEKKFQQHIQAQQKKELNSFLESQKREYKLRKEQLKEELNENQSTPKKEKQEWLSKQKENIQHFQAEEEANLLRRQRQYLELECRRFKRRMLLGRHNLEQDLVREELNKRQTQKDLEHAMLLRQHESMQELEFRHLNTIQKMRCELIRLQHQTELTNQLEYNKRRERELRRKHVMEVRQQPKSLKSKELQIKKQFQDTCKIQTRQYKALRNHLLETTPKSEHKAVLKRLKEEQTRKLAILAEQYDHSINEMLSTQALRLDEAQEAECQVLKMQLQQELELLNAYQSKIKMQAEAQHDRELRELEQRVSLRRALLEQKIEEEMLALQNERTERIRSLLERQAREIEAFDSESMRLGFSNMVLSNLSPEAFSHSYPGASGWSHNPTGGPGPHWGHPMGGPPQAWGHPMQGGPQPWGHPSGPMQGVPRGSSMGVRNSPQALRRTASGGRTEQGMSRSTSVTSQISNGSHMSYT
The experiment can be described thus: Inhibition of human TAOK1 assessed as enzyme activity at 1 uM using myelin basic protein as substrate preincubated for 20 mins followed by [gamma-33P]-ATP addition and measured after 120 mins by radiometric Hot-SpotSM Kinase assay relative to control.

Experiment [2] deals with Receptor-interacting serine/threonine-protein kinase 2 (Homo sapiens) (UniProt O43353). The experiment can be described thus: Inhibition of human RIPK2 assessed as enzyme activity at 1 uM using myelin basic protein as substrate preincubated for 20 mins followed by [gamma-33P]-ATP addition and measured after 120 mins by radiometric Hot-SpotSM Kinase assay relative to control.
Receptor-interacting serine/threonine-protein kinase 2 (Homo sapiens), sequence (O43353 whole entry): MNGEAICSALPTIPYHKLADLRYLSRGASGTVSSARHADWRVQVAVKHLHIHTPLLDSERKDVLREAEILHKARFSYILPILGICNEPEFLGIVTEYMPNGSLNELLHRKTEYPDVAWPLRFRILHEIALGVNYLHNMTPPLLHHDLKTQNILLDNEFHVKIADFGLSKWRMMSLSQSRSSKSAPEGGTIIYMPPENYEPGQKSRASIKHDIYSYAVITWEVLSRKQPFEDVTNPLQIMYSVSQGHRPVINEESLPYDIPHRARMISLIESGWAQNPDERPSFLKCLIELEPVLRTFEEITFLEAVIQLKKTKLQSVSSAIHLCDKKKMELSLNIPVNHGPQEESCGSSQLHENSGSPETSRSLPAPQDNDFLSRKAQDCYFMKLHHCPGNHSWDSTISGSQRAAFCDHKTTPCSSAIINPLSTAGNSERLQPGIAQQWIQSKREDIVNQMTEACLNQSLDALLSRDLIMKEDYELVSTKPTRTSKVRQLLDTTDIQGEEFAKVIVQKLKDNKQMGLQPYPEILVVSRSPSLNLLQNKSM

Experiment [3] concerns the target Casein kinase I isoform gamma-3 (Homo sapiens) (UniProt Q9Y6M4). The experiment can be described thus: Inhibition of human CK1g3 assessed as enzyme activity at 1 uM using KRRRAL[pS]VASLPGL as substrate preincubated for 20 mins followed by [gamma-33P]-ATP addition and measured after 120 mins by radiometric Hot-SpotSM Kinase assay relative to control.
Experiment [4] has as its target Leucine-rich repeat serine/threonine-protein kinase 2 (Homo sapiens) (UniProt Q5S007). Description: Inhibition of human LRRK2 assessed as enzyme activity at 1 uM using RLGRDKYKTLRQIRQ as substrate preincubated for 20 mins followed by [gamma-33P]-ATP addition and measured after 120 mins by radiometric Hot-SpotSM Kinase assay relative to control.
Experiment [5] deals with Tyrosine-protein kinase Yes (Homo sapiens) (UniProt P07947). The experiment can be described thus: Inhibition of human YES assessed as enzyme activity at 1 uM using poly[Glu:Tyr] (4:1) as substrate preincubated for 20 mins followed by [gamma-33P]-ATP addition and measured after 120 mins by radiometric Hot-SpotSM Kinase assay relative to control.
Tyrosine-protein kinase Yes (Homo sapiens), sequence (P07947 2-543 limits assumed): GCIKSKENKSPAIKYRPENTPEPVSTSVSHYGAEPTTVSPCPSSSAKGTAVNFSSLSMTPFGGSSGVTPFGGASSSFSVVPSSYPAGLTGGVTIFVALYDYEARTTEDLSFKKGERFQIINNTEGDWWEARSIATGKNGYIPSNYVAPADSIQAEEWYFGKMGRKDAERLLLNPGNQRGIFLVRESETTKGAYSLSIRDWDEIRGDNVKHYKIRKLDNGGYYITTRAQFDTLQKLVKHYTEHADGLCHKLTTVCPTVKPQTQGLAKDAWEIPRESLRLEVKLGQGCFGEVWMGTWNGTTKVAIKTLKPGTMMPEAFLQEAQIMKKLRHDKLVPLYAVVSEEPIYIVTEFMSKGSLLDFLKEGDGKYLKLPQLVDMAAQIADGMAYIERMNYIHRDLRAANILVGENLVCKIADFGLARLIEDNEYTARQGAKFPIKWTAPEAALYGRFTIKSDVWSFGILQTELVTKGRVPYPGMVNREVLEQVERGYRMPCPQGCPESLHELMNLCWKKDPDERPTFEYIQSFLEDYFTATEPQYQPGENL
In experiment [6] the target is T2, Serine/threonine-protein kinase 17A (Homo sapiens) (UniProt Q9UEE5).
T2 sequence (whole entry): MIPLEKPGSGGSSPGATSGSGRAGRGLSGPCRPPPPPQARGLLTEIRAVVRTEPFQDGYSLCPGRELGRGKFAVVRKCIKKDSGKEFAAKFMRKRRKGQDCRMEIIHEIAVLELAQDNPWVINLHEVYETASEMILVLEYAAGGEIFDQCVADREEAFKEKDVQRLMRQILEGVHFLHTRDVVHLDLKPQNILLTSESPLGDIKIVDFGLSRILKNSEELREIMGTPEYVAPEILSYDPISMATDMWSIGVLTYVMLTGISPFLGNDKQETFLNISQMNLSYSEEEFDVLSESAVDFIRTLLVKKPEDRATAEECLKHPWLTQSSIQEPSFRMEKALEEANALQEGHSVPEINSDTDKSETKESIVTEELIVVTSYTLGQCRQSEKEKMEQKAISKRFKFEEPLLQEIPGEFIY
The experiment can be described thus: Inhibition of human DRAK1/STK17A assessed as enzyme activity at 1 uM using KKLNRTLSFAEPG as substrate preincubated for 20 mins followed by [gamma-33P]-ATP addition and measured after 120 mins by radiometric Hot-SpotSM Kinase assay relative to control.

The target in experiment [7] is T3, Serine/threonine-protein kinase 3 (Homo sapiens) (UniProt Q13188).
T3 sequence (whole entry): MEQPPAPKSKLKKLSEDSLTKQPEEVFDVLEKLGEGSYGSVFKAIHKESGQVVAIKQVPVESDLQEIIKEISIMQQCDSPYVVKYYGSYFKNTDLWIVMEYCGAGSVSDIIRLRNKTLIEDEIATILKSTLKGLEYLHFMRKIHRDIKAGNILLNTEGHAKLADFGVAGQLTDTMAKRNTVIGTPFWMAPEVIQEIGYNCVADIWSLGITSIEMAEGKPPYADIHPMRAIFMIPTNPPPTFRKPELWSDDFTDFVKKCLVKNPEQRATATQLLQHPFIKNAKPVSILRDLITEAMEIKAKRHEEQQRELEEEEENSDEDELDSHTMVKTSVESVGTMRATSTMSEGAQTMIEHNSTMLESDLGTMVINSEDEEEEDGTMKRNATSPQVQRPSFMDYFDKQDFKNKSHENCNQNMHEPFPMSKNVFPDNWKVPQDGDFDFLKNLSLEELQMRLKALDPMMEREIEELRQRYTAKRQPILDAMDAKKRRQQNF
The experiment can be described thus: Inhibition of human MST2 assessed as enzyme activity at 1 uM using myelin basic protein as substrate preincubated for 20 mins followed by [gamma-33P]-ATP addition and measured after 120 mins by radiometric Hot-SpotSM Kinase assay relative to control.

The target in experiment [8] is Tyrosine-protein kinase Blk (Homo sapiens) (UniProt P51451). Description: Inhibition of human BLK assessed as enzyme activity at 1 uM using poly[Glu:Tyr] (4:1) as substrate preincubated for 20 mins followed by [gamma-33P]-ATP addition and measured after 120 mins by radiometric Hot-SpotSM Kinase assay relative to control.
Tyrosine-protein kinase Blk (Homo sapiens), sequence (P51451 2-505 limits assumed): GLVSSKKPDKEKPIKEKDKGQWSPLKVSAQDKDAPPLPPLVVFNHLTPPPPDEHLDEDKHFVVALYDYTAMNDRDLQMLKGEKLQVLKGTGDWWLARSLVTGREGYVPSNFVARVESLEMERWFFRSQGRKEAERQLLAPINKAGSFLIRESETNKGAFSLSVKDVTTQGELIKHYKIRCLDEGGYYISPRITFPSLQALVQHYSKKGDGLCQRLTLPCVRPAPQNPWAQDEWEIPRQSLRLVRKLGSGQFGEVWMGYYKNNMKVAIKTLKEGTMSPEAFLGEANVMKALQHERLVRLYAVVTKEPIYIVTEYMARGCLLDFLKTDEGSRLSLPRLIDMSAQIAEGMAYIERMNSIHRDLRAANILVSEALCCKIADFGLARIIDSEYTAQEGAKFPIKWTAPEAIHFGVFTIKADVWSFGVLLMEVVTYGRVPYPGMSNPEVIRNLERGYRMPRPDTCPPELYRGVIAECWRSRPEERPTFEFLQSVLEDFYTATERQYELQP
For experiment [9], the target named is Ribosomal protein S6 kinase alpha-5 (Homo sapiens) (UniProt O75582). Description: Inhibition of human MSK1 assessed as enzyme activity at 1 uM using GRPRTSSFAEG as substrate preincubated for 20 mins followed by [gamma-33P]-ATP addition and measured after 120 mins by radiometric Hot-SpotSM Kinase assay relative to control.
Ribosomal protein S6 kinase alpha-5 (Homo sapiens), sequence (O75582 whole entry, looked up): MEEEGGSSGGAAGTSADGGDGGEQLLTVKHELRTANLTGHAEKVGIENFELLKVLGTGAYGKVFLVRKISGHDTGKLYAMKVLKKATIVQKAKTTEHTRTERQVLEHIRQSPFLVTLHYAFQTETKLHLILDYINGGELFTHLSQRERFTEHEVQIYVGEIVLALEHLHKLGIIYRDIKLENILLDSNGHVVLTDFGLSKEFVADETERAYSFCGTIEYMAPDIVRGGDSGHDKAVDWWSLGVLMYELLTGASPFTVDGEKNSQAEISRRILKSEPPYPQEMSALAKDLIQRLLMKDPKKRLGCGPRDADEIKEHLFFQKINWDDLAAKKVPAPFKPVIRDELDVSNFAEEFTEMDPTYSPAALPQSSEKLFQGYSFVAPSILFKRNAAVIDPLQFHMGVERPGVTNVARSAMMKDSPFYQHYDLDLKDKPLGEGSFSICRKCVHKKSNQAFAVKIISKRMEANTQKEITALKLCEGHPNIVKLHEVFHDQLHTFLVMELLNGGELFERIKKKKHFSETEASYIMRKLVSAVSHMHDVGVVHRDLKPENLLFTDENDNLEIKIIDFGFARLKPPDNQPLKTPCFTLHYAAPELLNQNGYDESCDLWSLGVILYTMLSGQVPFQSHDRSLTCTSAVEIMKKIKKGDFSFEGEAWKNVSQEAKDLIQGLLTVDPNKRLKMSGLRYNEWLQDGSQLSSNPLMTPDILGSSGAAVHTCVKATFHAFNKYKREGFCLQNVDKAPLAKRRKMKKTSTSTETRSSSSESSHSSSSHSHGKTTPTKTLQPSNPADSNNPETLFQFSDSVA

Casein kinase I isoform gamma-3 (Homo sapiens), sequence (Q9Y6M4 whole entry, looked up, canonical isoform): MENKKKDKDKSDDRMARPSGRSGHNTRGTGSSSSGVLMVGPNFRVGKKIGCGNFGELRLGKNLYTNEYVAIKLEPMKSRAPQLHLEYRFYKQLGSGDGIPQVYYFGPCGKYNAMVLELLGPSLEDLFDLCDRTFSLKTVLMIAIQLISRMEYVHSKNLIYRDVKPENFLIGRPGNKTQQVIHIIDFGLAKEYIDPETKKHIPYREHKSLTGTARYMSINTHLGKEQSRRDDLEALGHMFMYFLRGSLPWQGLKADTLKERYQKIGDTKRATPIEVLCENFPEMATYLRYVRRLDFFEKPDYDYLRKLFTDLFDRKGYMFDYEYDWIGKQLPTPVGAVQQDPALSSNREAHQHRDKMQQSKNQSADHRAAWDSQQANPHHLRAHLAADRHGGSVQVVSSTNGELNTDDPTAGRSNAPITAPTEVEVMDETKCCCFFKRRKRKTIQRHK

Regarding `C[C@H](Nc1ncnc2nc[nH]c12)c1cc2cccc(Cl)c2c(=O)n1-c1ccccc1`, the Activity in experiment [1] was 97.9%; in [2], 92.2%; in [3], 92.9%; in experiment [4], 111%; in experiment [5], 94.2%; in [6] it was 95.4%. For the same molecule, the Activity in experiment [7] was 94.5%; in experiment [8], 96.9%; in experiment [9], 96.3%.
`CC[C@H](Nc1ncnc2[nH]cnc12)c1nc2cccc(F)c2c(=O)n1-c1ccccc1`: the Activity was 101% in experiment [1]; 96.5% in experiment [2]; 93.1% in experiment [3]; 99.7% in experiment [4]; 93.1% in experiment [5]; 95.1% in experiment [6]. The Activity was determined as 96.9% in experiment [7], 97.6% in [8] and 94.6% in experiment [9].
Take `CC(C)Oc1ccc(-c2nn([C@@H](C)c3oc4ccc(F)cc4c(=O)c3-c3cccc(F)c3)c3ncnc(N)c23)cc1F` [UMBRALISIB]: the Activity in experiment [1] was determined as 92.9%; in experiment [2], 94.2%; in [3] it was 95.4%; in experiment [4], 107%; in experiment [5], 93.5%; in experiment [6], 92.4%. The Activity came to 97.4% in [7], 99.7% in experiment [8] and 96.8% in experiment [9].
